Patent US11723360B2 (priority 2018, dated 2023)
Values after ≈ are worked out from the molar mass of the structure shown. Read-outs that look alike come from different tables or passages of the source.

How the values were obtained:
[1] = test system: Caenorhabditis elegans; assay: Insecticidal bioassay against Caenorhabditis elegans in 96-well plate; assay type: in vivo; conditions: for LC50: Caenorhabditis elegans
Method: 20 μL of 1 mg/mL methylmalonic acid aqueous solution was added to the 96-well plate, and at the same time, purified water was added; the final concentrations of the methylmalonic acid in the well plate was adjusted to […] in order; 40 nematodes were added to each well; and a bioassay system was 200 μL in total, with the purified water as a control. The process was repeated 3 times for each group. They were cultured in an incubator at 16° C.
20 μL of 1 mg/mL mixed aqueous solution of methylmalonic acid and betaine (mass ratio: 1:1) was added to the 96-well plate, and at the same time, purified water was added; the final concentrations of the compounded solution in the well plate was adjusted to 1000, 100, 25, 16.67, 12.5, 10, 1, 0.5, 0.25 μg/mL in order; and 40 nematodes were added to each well; a bioassay system was 200 μL in total, with the purified water as a control, and 3 times repeated for each group. They were cultured in an incubator at 16° C.

[2] = test system: Meloidogyne incognita; assay: Insecticidal bioassay against root-knot nematodes in 96-well plate; parameters: Lethality Rate (%): dose or concentration left out as unconfirmed; conditions: for LC50: Meloidogyne incognita
[3] = test system: Ralstonia solanacearum; assay type: cell-based
[4] = test system: Erwinia carotovora; assay: Agar plate diffusion method, bacterial plant pathogens; assay type: cell-based
[5] = test system: Xanthomonas campestris; assay: as above; assay type: cell-based; conditions: 5 μL of 0.1 g/mL on 6 mm filter paper, 30° C.
[6] = test system: Alternaria solani; assay: Mycelium growth rate method, fungal plant pathogens; assay type: cell-based; parameters: key: +: effective; −: ineffective; conditions: 28° C.
Method: (§1) The mycelia of fungal pathogens were picked and inoculated to a PDA medium for activation. With a mycelium growth rate method, 200 μg/mL methylmalonic acid mother liquid was prepared using sterile water; 4.5 mL of sterile water was added to 0.5 mL of the mother liquid and evenly mixed; fungal masses were picked and placed in a PDA culture medium plate center, and then cultured at 28° C. to observe the results, with the sterile water as a negative control. After the plate was fully covered with the control mycelia, the diameters of the control and treatment colonies were counted with a crossing method.
as §1, with “μg/mL mixed aqueous solution of” for “μg/mL”, “acid and betaine (mass ratio: 1:1)” for “acid mother liquid”, “the mixed solution” for “the mother liquid”

[7] = test system: Botrytis cinerea; assay: as above; assay type: cell-based; parameters: key: +: effective; −: ineffective; conditions: 28° C.
Method: as §1
as §1, with “μg/mL mixed aqueous solution of” for “μg/mL”, “acid and betaine (mass ratio: 1:1)” for “acid mother liquid”, “the mixed solution” for “the mother liquid”

[8] = test system: Corynespora cassiicola; assay: as above; assay type: cell-based; parameters: key: +: effective; −: ineffective; conditions: 28° C.
Method: as §1
as §1, with “μg/mL mixed aqueous solution of” for “μg/mL”, “acid and betaine (mass ratio: 1:1)” for “acid mother liquid”, “the mixed solution” for “the mother liquid”

[9] = test system: Fusarium oxysporum; assay: as above; assay type: cell-based; parameters: key: +: effective; −: ineffective; conditions: 28° C.
Method: as §1
as §1, with “μg/mL mixed aqueous solution of” for “μg/mL”, “acid and betaine (mass ratio: 1:1)” for “acid mother liquid”, “the mixed solution” for “the mother liquid”

[10] = test system: Pestalotiopsis theae; assay: as above; assay type: cell-based; parameters: key: +: effective; −: ineffective; conditions: 28° C.
Method: as §1
as §1, with “μg/mL mixed aqueous solution of” for “μg/mL”, “acid and betaine (mass ratio: 1:1)” for “acid mother liquid”, “the mixed solution” for “the mother liquid”

[11] = test system: Phytophthora capsici; assay: as above; assay type: cell-based; parameters: key: +: effective; −: ineffective; conditions: 28° C.
Method: as §1
as §1, with “μg/mL mixed aqueous solution of” for “μg/mL”, “acid and betaine (mass ratio: 1:1)” for “acid mother liquid”, “the mixed solution” for “the mother liquid”

[12] = test system: Rhizoctonia solani; assay: as above; assay type: cell-based; parameters: key: +: effective; −: ineffective; conditions: 28° C.
Method: as §1
as §1, with “μg/mL mixed aqueous solution of” for “μg/mL”, “acid and betaine (mass ratio: 1:1)” for “acid mother liquid”, “the mixed solution” for “the mother liquid”

[13] = test system: Sclerotinia sclerotiorum; assay: as above; assay type: cell-based; parameters: key: +: effective; −: ineffective; conditions: 28° C.
Method: as §1
as §1, with “μg/mL mixed aqueous solution of” for “μg/mL”, “acid and betaine (mass ratio: 1:1)” for “acid mother liquid”, “the mixed solution” for “the mother liquid”

[14] = test system: fungal plant pathogens; assay: Mycelium growth rate method, summary statement for all fungi tested; assay type: cell-based; conditions: Example 5
Method: as §1
as §1, with “μg/mL mixed aqueous solution of” for “μg/mL”, “acid and betaine (mass ratio: 1:1)” for “acid mother liquid”, “the mixed solution” for “the mother liquid”

[15] = water, alcohol, ether; cited from earlier work
[16] = read-out: LC50 against the Meloidogyne incognita
[17] = read-out: LC50 value against the Meloidogyne incognita
[18] = 5 μL of 0.1 g/mL on 6 mm filter paper, 30° C.
[19] = 200 μg/mL mother liquid, 0.5 mL + 4.5 mL sterile water, PDA
[20] = Example 9: 200 μg/mL mixed aqueous solution of methylmalonic acid and betaine (1:1), 0.5 mL + 4.5 mL water

## C[N+](C)(C)CC(=O)O [betaine]
[1]; text of Examples 3 and 7, read-out: LC50 against the Caenorhabditis elegans
  LC50: 14.8 µg/mL
[2]; [16]
  LC50: 75.2 µg/mL
[2]; [17]
  LC50: 75.2 µg/mL

## CC(C(=O)O)C(=O)O [methylmalonic acid]
[1]; 16° C., table value, read-out: Medial Lethal Concentration (LC50, ug/mL)
  LC50: 1.2 µg/mL (≈ 10.2 µM)
[1]; read-out: LC50 value against the Caenorhabditis elegans, text of Example 3
  LC50: 1.2 µg/mL (≈ 10.2 µM)
[1]; Dose 1 pg/mL
  Lethality Rate (%): 18.4%
[1]; Dose 10 pg/mL
  Lethality Rate (%): 70.0%
[1]; Dose 16.67 pg/mL
  Lethality Rate (%): 94.9%
[1]; Dose 25 pg/mL
  Lethality Rate (%): 90.5%
[1]; Dose 100 pg/mL
  Lethality Rate (%): 97.4%
[1]; Dose 1000 pg/mL
  Lethality Rate (%): 97.5%
[3]; [18]
  Diameter of Inhibition Zone: 12 mm
  Microbicidal Effect: ++ (with microbicidal activity, and the diameter of an inhibition zone being more than 10 mm)
[3]; 5 μL of 0.1 g/mL, Example 4
  microbicidal activity against the Pseudomonas solanacearum: showed a microbicidal activity
[4]; [18]
  Diameter of Inhibition Zone: 6.9 mm
  Microbicidal Effect: + (with microbicidal activity, the diameter of an inhibition zone being less than 10 mm)
[4]; 5 μL of 0.1 g/mL, Example 4
  microbicidal activity against the Erwinia carotovora: showed a microbicidal activity
[5]
  Diameter of Inhibition Zone: 0 mm
  Microbicidal Effect: −
[6]; [19]
  Microbicidal Effect: −
[6]; [20]
  Microbicidal Effect: −
[7]; [19]
  Microbicidal Effect: −
[7]; [20]
  Microbicidal Effect: −
[8]; [19]
  Microbicidal Effect: −
[8]; [20]
  Microbicidal Effect: −
[9]; [19]
  Microbicidal Effect: −
[9]; [20]
  Microbicidal Effect: −
[10]; [19]
  Microbicidal Effect: −
[10]; [20]
  Microbicidal Effect: −
[11]; [19]
  Microbicidal Effect: −
[11]; [20]
  Microbicidal Effect: −
[12]; [19]
  Microbicidal Effect: −
[12]; [20]
  Microbicidal Effect: −
[13]; [19]
  Microbicidal Effect: −
[13]; [20]
  Microbicidal Effect: −
[14]
  microbicidal activity against the fungal plant pathogens: showed no microbicidal activity
[15]
  solubility (physical properties): soluble in water, alcohol and ether
[2]; Dose 1
  Lethality Rate (%): 8.1%
[2]; Dose 10
  Lethality Rate (%): 12.5%
[2]; Dose 12.5
  Lethality Rate (%): 29.3%
[2]; Dose 16.67
  Lethality Rate (%): 76.3%
[2]; Dose 25
  Lethality Rate (%): 81.1%
[2]; Dose 50
  Lethality Rate (%): 80%
[2]; Dose 100
  Lethality Rate (%): 97.5%
[2]; Dose 1000
  Lethality Rate (%): 97.4%
[2]; [16]
  LC50: 13.1 µg/mL (≈ 111 µM)
[2]; [17]
  LC50: 13.1 µg/mL (≈ 111 µM)
[2]; read-out: Medial Lethal Concentration (LC50, ug/mL)
  LC50: 13.1 µg/mL (≈ 111 µM)
